The values below come from patent publication US20240092784A1, “CONDENSED HETEROCYCLIC COMPOUND” (NISSAN CHEMICAL CORPORATION, priority 2020, published 2024).

Structures can show the parent of a compound that is named as a salt.

The first assay deals with human SPR (Homo sapiens (Human), UniProt P35270). The assay is described as follows: Evaluation Example 2: Measurement of human SPR inhibitory activity (seven concentrations, sepiapterin absorbance at 420 nm). It counts as biochemical. The settings on record: Evaluation Example 2, seven concentrations 0.14 nM to 100 nM, 240 minutes at room temperature, read-out: IC50. Summed up: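 His-tagged full-length human SPR (1-261) was expressed in E. coli and the tag removed. Enzyme at 150 ng/mL in 100 mM Tris-HCl pH 7.5/0.01% BSA was mixed with compound (0.14–100 nM, seven points), 120 μM sepiapterin and 160 μM NADPH, both as added-solution concentrations. After 240 min at room temperature, remaining sepiapterin was read at 420 nm to give percent inhibition.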
human SPR, sequence (P35270 whole entry): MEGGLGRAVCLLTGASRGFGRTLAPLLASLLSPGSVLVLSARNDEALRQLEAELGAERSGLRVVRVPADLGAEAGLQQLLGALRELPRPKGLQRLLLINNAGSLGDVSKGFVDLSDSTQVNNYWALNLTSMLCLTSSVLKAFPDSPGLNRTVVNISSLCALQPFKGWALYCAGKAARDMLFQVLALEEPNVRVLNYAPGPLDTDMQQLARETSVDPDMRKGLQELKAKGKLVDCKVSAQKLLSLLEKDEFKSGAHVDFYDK
With `CC(C)(C)Cn1c(=O)c(C(=O)NC2CC2)c(O)n2nc(Nc3ccnc(C#N)n3)cc12` [Synthesis Example 325, 2-((2-Cyanopyrimidin-4-yl)amino)-N-cyclopropyl-7-hydroxy-4-neopentyl-5-oxo-4,5-dihydropyrazolo[1,5-a]pyrimidine-6-carboxamide], the IC50 was 1.45 nM.
In the case of `CC(C)(C)Cn1c(=O)c(C(=O)NC2CC2)c(O)n2nc(C(C)(C)O)cc12` [Synthesis Example 278, N-Cyclopropyl-7-hydroxy-2-(2-hydroxypropan-2-yl)-4-neopentyl-5-oxo-4,5-dihydropyrazolo[1,5-a]pyrimidine-6-carboxamide], the IC50 was found to be 1.87 nM.
Still for that read-out and setting: the result for `CC(C)Cn1c(=O)c(C(=O)NC2CC2)c(O)n2nc(N)c(/C=C/C(=O)N3[C@@H](C)COC[C@@H]3C)c12` [Synthesis Example 422, 2-Amino-N-cyclopropyl-3-((E)-3-((3S,5S)-3,5-dimethylmorpholino)-3-oxoprop-1-en-1-yl)-7-hydroxy-4-isobutyl-5-oxo-4,5-dihydropyrazolo[1,5-a]pyrimidine-6-carboxamide] reads 0.75 nM.
Turning to `COC1CN(C(=O)/C=C/c2cnn3c(O)c(C(=O)NC4CC4)c(=O)n(CC(C)C)c23)C1` [compound 558, (E)-N-Cyclopropyl-7-hydroxy-4-isobutyl-3-(3-(3-methoxyazetidin-1-yl)-3-oxoprop-1-en-1-yl)-5-oxo-4,5-dihydropyrazolo[1,5-a]pyrimidine-6-carboxamide], the IC50 amounted to 1.14 nM.
The same measure, in the same setting: the result for `CC(C)(C)Cn1c(=O)c(C(=O)NC2CC2)c(O)n2nc(Nc3ncco3)cc12` [Synthesis Example 361, N-Cyclopropyl-7-hydroxy-4-neopentyl-2-(oxazol-2-ylamino)-5-oxo-4,5-dihydropyrazolo[1,5-a]pyrimidine-6-carboxamide] reads 1.42 nM; that for `CC(C)Cn1c(=O)c(C(=O)NC2CC2)c(O)n2ncc(/C=C/C(=O)N3CCC3)c12` [compound 553, (E)-3-(3-(Azetidin-1-yl)-3-oxoprop-1-en-1-yl)-N-cyclopropyl-7-hydroxy-4-isobutyl-5-oxo-4,5-dihydropyrazolo[1,5-a]pyrimidine-6-carboxamide], 0.99 nM; that for `CC(C)(C)Cn1c(=O)c(C(=O)NC2CC2)c(O)n2nc(Nc3cnc(C(F)F)cn3)cc12` [Synthesis Example 337, N-Cyclopropyl-2-((5-(difluoromethyl)pyrazin-2-yl)amino)-7-hydroxy-4-neopentyl-5-oxo-4,5-dihydropyrazolo[1,5-a]pyrimidine-6-carboxamide], 1.48 nM.
As to `Cc1nn2c(O)c(C(=O)NC3CC3)c(=O)n(CC(C)C)c2c1/C=C/C(=O)N1CC2CCC(C1)C2(F)F` [Synthesis Example 651, (E)-N-Cyclopropyl-3-(3-(8,8-difluoro-3-azabicyclo[3.2.1]octan-3-yl)-3-oxoprop-1-en-1-yl)-7-hydroxy-4-isobutyl-2-methyl-5-oxo-4,5-dihydropyrazolo[1,5-a]pyrimidine-6-carboxamide], the IC50 was 1.19 nM.
For the compound `CC(C)(C)Cn1c(=O)c(C(=O)NC2CC2)c(O)n2nc(-c3cncnc3)cc12` [Synthesis Example 288, N-Cyclopropyl-7-hydroxy-4-neopentyl-5-oxo-2-(pyrimidin-5-yl)-4,5-dihydropyrazolo[1,5-a]pyrimidine-6-carboxamide], the IC50 was 1.37 nM.
Still for that read-out and setting: the result for `CC(C)Cn1c(=O)c(C(=O)NC2CC2)c(O)n2ncc(C(=O)NCc3cccnc3)c12` [Synthesis Example 216, N6-Cyclopropyl-7-hydroxy-4-isobutyl-5-oxo-N3-(pyridin-3-ylmethyl)-4,5-dihydropyrazolo[1,5-a]pyrimidine-3,6-dicarboxamide] reads 0.78 nM.
Same read-out and setting: under `CC(C)Cn1c(=O)c(C(=O)NC2CC2)c(O)n2nc(NC(=O)OC(C)(C)C)c(/C=C/C(=O)N3CCOCC3)c12` [Synthesis Example 415, Tert-butyl (E)-(6-(cyclopropylcarbamoyl)-7-hydroxy-4-isobutyl-3-(3-morpholino-3-oxoprop-1-en-1-yl)-5-oxo-4,5-dihydropyrazolo[1,5-a]pyrimidin-2-yl)carbamate] stands 0.74 nM; under `CCC(N)c1cc2n(CC(C)(C)C)c(=O)c(C(=O)NC3CC3)c(O)n2n1` (racemic) [Synthesis Example 280, 2-(1-Aminopropyl)-N-cyclopropyl-7-hydroxy-4-neopentyl-5-oxo-4,5-dihydropyrazolo[1,5-a]pyrimidine-6-carboxamide hydrochloride (racemate)], 5.64 nM.
Same read-out and setting: the result for `Cc1nn2c(O)c(C(=O)NC3CC3)c(=O)n(CC(C)C)c2c1/C=C/C(=O)N1CCC[C@H]1c1cccnc1` [Synthesis Example 633, (S,E)-N-Cyclopropyl-7-hydroxy-4-isobutyl-2-methyl-5-oxo-3-(3-oxo-3-(2-(pyridin-3-yl)pyrrolidin-1-yl)prop-1-en-1-yl)-4,5-dihydropyrazolo[1,5-a]pyrimidine-6-carboxamide] reads 0.91 nM.
As to `CC(C)Cn1c(=O)c(C(=O)NC2CC2)c(O)n2ncc(C(=O)NCc3ccncc3)c12` [Synthesis Example 217, N6-Cyclopropyl-7-hydroxy-4-isobutyl-5-oxo-N3-(pyridin-4-ylmethyl)-4,5-dihydropyrazolo[1,5-a]pyrimidine-3,6-dicarboxamide], the IC50 was 0.69 nM.
Still for that read-out and setting: the result for `O=C(NC1CC1)c1c(O)n2ncc(/C=C/C(=O)N3CC4CCC(C3)O4)c2n(CC2(F)CC2)c1=O` [Synthesis Example 378, (E)-3-(3-(8-Oxa-3-azabicyclo[3.2.1]octan-3-yl)-3-oxoprop-1-en-1-yl)-N-cyclopropyl-4-((1-fluorocyclopropyl)methyl)-7-hydroxy-5-oxo-4,5-dihydropyrazolo[1,5-a]pyrimidine-6-carboxamide] reads 0.79 nM; that for `CC(C)Cn1c(=O)c(C(=O)NC2CC2)c(O)n2ncc(/C=C/C(=O)N(C)C3CC3)c12` [compound 497, (E)-N-Cyclopropyl-3-(3-(cyclopropyl(methyl)amino)-3-oxoprop-1-en-1-yl)-7-hydroxy-4-isobutyl-5-oxo-4,5-dihydropyrazolo[1,5-a]pyrimidine-6-carboxamide], 0.59 nM.

Staying with this assay, now noted: sepiapterin absorbance, Table 41, read-out: concentration at 50% inhibition of human SPR (IC50).
Regarding `Cc1nn2c(O)c(C(=O)NC3CC3)c(=O)n(CC(C)C)c2c1/C=C/C(=O)N1CCC(C#N)CC1` [Synthesis Example 684, (E)-3-(3-(4-Cyanopiperidin-1-yl)-3-oxoprop-1-en-1-yl)-N-cyclopropyl-7-hydroxy-4-isobutyl-2-methyl-5-oxo-4,5-dihydropyrazolo[1,5-a]pyrimidine-6-carboxamide], the IC50 was found to be 0.89 nM.
On the same count and under the same terms, under `Cc1nn2c(O)c(C(=O)NC3CC3)c(=O)n(CC(C)C)c2c1/C=C/C(=O)N1CC[C@@H](C#N)C1` [Synthesis Example 689, (R,E)-3-(3-(3-Cyanopyrrolidin-1-yl)-3-oxoprop-1-en-1-yl)-N-cyclopropyl-7-hydroxy-4-isobutyl-2-methyl-5-oxo-4,5-dihydropyrazolo[1,5-a]pyrimidine-6-carboxamide] stands 0.95 nM.
On the same count and under the same terms, under `CC(C)Cn1c(=O)c(C(=O)NC2CC2)c(O)n2ncc(/C=C/C(=O)N3CCN(CC4CC(F)(F)C4)C[C@H]3C)c12` [Synthesis Example 745, (R,E)-N-Cyclopropyl-3-(3-(4-((3,3-difluorocyclobutyl)methyl)-2-methylpiperazin-1-yl)-3-oxoprop-1-en-1-yl)-7-hydroxy-4-isobutyl-5-oxo-4,5-dihydropyrazolo[1,5-a]pyrimidine-6-carboxamide] stands 1.85 nM.
As for `Cc1nn2c(O)c(C(=O)NC3CC3)c(=O)n(CC(C)C)c2c1/C=C/C(=O)N1CCc2cncnc21` [Synthesis Example 752, (E)-N-Cyclopropyl-3-(3-(5,6-dihydro-7H-pyrrolo[2,3-d]pyrimidin-7-yl)-3-oxoprop-1-en-1-yl)-7-hydroxy-4-isobutyl-2-methyl-5-oxo-4,5-dihydropyrazolo[1,5-a]pyrimidine-6-carboxamide], the IC50 was 0.88 nM.
The same measure, in the same setting: under `CC(C)Cn1c(=O)c(C(=O)NC2CC2)c(O)n2ncc(/C=C/C(=O)N3CCN(CC4CC(F)(F)C4)CC3)c12` [Synthesis Example 714, (E)-N-Cyclopropyl-3-(3-(4-((3,3-difluorocyclobutyl)methyl)piperazin-1-yl)-3-oxoprop-1-en-1-yl)-7-hydroxy-4-isobutyl-5-oxo-4,5-dihydropyrazolo[1,5-a]pyrimidine-6-carboxamide] stands 2.54 nM.
For `Cc1nn2c(O)c(C(=O)NC3CC3)c(=O)n(CC(C)C)c2c1/C=C/C(=O)N1CCN(CC2CC(F)(F)C2)CC1` [Synthesis Example 698, (E)-N-Cyclopropyl-3-(3-(4-((3,3-difluorocyclobutyl)methyl)piperazin-1-yl)-3-oxoprop-1-en-1-yl)-7-hydroxy-4-isobutyl-2-methyl-5-oxo-4,5-dihydropyrazolo[1,5-a]pyrimidine-6-carboxamide], the IC50 came out at 1.52 nM.
Take `CC(C)Cn1c(=O)c(C(=O)NC2CC2)c(O)n2ncc(/C=C/C(=O)N3C[C@H](C)OC[C@@H]3C)c12` [Synthesis Example 717, N-Cyclopropyl-3-((E)-3-((2S,5S)-2,5-dimethylmorpholino)-3-oxoprop-1-en-1-yl)-7-hydroxy-4-isobutyl-5-oxo-4,5-dihydropyrazolo[1,5-a]pyrimidine-6-carboxamide]: the IC50 is 0.78 nM.
Same read-out and setting: the result for `CC(C)Cn1c(=O)c(C(=O)NC2CC2)c(O)n2ncc(/C=C/C(=O)N(C)Cc3ncccn3)c12` [Synthesis Example 711, (E)-N-Cyclopropyl-7-hydroxy-4-isobutyl-3-(3-(methyl(pyrimidin-2-ylmethyl)amino)-3-oxoprop-1-en-1-yl)-5-oxo-4,5-dihydropyrazolo[1,5-a]pyrimidine-6-carboxamide] reads 1.2 nM.
